According to ChEMBL document CHEMBL1681670, “Synthesis and cytotoxicity of (-)-renieramycin G analogs” (Bioorg Med Chem Lett, 2011):
In brackets after ≈: the same amount, converted by molar mass.

Columns and labels:
KETR3 = assay: Cytotoxicity against human Ketr3 cells after 3 days by MTT assay; assay type: functional, cell-based; conditions: KETR3, 72 h
A549 = assay: Cytotoxicity against human A549 cells after 3 days by MTT assay; assay type: functional, cell-based; conditions: A549, 72 h
Bel-7402 = assay: Cytotoxicity against human Bel7402 cells after 3 days by MTT assay; assay type: functional, cell-based; conditions: Bel-7402, 72 h
MCF7 = assay: Cytotoxicity against human MCF7 cells after 3 days by MTT assay; assay type: functional, cell-based; conditions: MCF7, 72 h
A2780 = assay: Cytotoxicity against human A2780 cells after 3 days by MTT assay; assay type: functional, cell-based; conditions: A2780, 72 h
HCT-8 = assay: Cytotoxicity against human HCT8 cells after 3 days by MTT assay; assay type: functional, cell-based; conditions: HCT-8, 72 h
HeLa = assay: Cytotoxicity against human HeLa cells after 3 days by MTT assay; assay type: functional, cell-based; conditions: 72 h
BGC-823 = assay: Cytotoxicity against human BGC823 cells after 3 days by MTT assay; assay type: functional, cell-based; conditions: BGC-823, 72 h
KB [1] = assay: Cytotoxicity against human KB cells after 3 days by MTT assay; assay type: functional, cell-based; conditions: 72 h
LoVo = assay: Cytotoxicity against human LoVo cells; assay type: functional
KB [2] = assay: Cytotoxicity against human KB cells; assay type: functional

| Compound | IC50 (KETR3) | IC50 (A549) | IC50 (Bel-7402) | IC50 (MCF7) | IC50 (A2780) | IC50 (HCT-8) | IC50 (HeLa) | IC50 (BGC-823) | IC50 (KB [1]) | MIC (LoVo) | MIC (KB [2]) |
| --- | --- | --- | --- | --- | --- | --- | --- | --- | --- | --- | --- |
| COC1=C(C)C(=O)C2=C(C1=O)[C@@H]1[C@@H]3CC4=C(C(=O)C(OC)=C(C)C4=O)[C@H](COC(C)=O)N3C(=O)[C@H](C2)N1C | 4.58 µM | 4.49 µM | 3.96 µM | 4.92 µM | 3.26 µM | 5.68 µM | 2.68 µM | 4.27 µM | 2.25 µM | – | – |
| C/C=C/C(=O)OC[C@H]1C2=C(C[C@H]3[C@H]4C5=C(C[C@@H](C(=O)N13)N4C)C(=O)C(C)=C(OC)C5=O)C(=O)C(C)=C(OC)C2=O | 17.2 µM | 7.42 µM | 23.9 µM | 23.8 µM | 25.3 µM | 24.7 µM | 12.7 µM | 10.7 µM | 5.28 µM | – | – |
| C/C=C/C=C/C(=O)OC[C@H]1C2=C(C[C@H]3[C@H]4C5=C(C[C@@H](C(=O)N13)N4C)C(=O)C(C)=C(OC)C5=O)C(=O)C(C)=C(OC)C2=O | 3.86 µM | 3.2 µM | 2.13 µM | 2.54 µM | 2.44 µM | 3.47 µM | 2.43 µM | 3.5 µM | 2.03 µM | – | – |
| COC1=C(C)C(=O)C2=C(C1=O)[C@@H]1[C@@H]3CC4=C(C(=O)C(OC)=C(C)C4=O)[C@H](COC(=O)c4cc(OC)c(OC)c(OC)c4)N3C(=O)[C@H](C2)N1C | 2.16 µM | 2.23 µM | 2.26 µM | 2.04 µM | 2.16 µM | 2.73 µM | 1.28 µM | 1.18 µM | 1.79 µM | – | – |
| COC1=C(C)C(=O)C2=C(C1=O)[C@@H]1[C@@H]3CC4=C(C(=O)C(OC)=C(C)C4=O)[C@H](COC(=O)c4cc5ccccc5[nH]4)N3C(=O)[C@H](C2)N1C | 4.42 µM | 4.07 µM | 4.59 µM | 3.88 µM | 3.8 µM | 7.85 µM | 2.7 µM | 2.6 µM | 3.36 µM | – | – |
| COC1=C(C)C(=O)C2=C(C1=O)[C@@H]1[C@@H]3CC4=C(C(=O)C(OC)=C(C)C4=O)[C@H](COC(=O)c4cccnc4)N3C(=O)[C@H](C2)N1C | 4.62 µM | 5.94 µM | 6.47 µM | 17.4 µM | 12.2 µM | 19.4 µM | 3.39 µM | 3.38 µM | 3.16 µM | – | – |
| COC1=C(C)C(=O)C2=C(C1=O)[C@@H]1[C@@H]3CC4=C(C(=O)C(OC)=C(C)C4=O)[C@H](COC(=O)c4ccccc4)N3C(=O)[C@H](C2)N1C | 8.82 µM | 3.88 µM | 3.78 µM | 4.94 µM | 3.07 µM | 6.06 µM | 3.1 µM | 8.35 µM | 2.83 µM | – | – |
| COC1=C(C)C(=O)C2=C(C1=O)[C@@H]1[C@@H]3CC4=C(C(=O)C(OC)=C(C)C4=O)[C@H](COC(=O)c4cccs4)N3C(=O)[C@H](C2)N1C | 1.67 µM | 0.71 µM | 1.6 µM | 1.86 µM | 1.44 µM | 1.48 µM | 0.47 µM | 0.52 µM | 0.02 µM | – | – |
| COC1=C(C)C(=O)C2=C(C1=O)[C@@H]1[C@@H]3CC4=C(C(=O)C(OC)=C(C)C4=O)[C@H](COC(=O)c4cccc5ccccc45)N3C(=O)[C@H](C2)N1C | 13.8 µM | 12.5 µM | 10.9 µM | 14.1 µM | 15 µM | 28 µM | 7.58 µM | 17.5 µM | 5.41 µM | – | – |
| COC1=C(C)C(=O)C2=C(C1=O)[C@@H]1[C@@H]3CC4=C(C(=O)C(OC)=C(C)C4=O)[C@H](COC(=O)/C=C/c4ccc(OC)cc4)N3C(=O)[C@H](C2)N1C | 3.12 µM | 8.34 µM | 7.28 µM | 3.74 µM | 4.16 µM | 8.85 µM | 2.81 µM | 3.84 µM | 3.73 µM | – | – |
| COC1=C(C)C(=O)C2=C(C1=O)[C@@H]1[C@@H]3CC4=C(C(=O)C(OC)=C(C)C4=O)[C@H](COC(=O)/C=C/c4ccc(F)cc4)N3C(=O)[C@H](C2)N1C | 10.4 µM | 8.32 µM | 14.2 µM | 9.67 µM | 15.8 µM | 9.15 µM | 9.99 µM | 7.43 µM | 3.95 µM | – | – |
| COC1=C(C)C(=O)C2=C(C1=O)[C@@H]1[C@@H]3CC4=C(C(=O)C(OC)=C(C)C4=O)[C@H](COC(=O)/C=C/c4ccccc4)N3C(=O)[C@H](C2)N1C | 7.83 µM | 5 µM | 2.3 µM | 3.55 µM | 5 µM | 5 µM | 4.39 µM | 3.31 µM | 2.96 µM | – | – |
| COC1=C(C)C(=O)C2=C(C1=O)[C@@H]1[C@@H]3CC4=C(C(=O)C(OC)=C(C)C4=O)[C@H](COC(=O)/C=C/c4cccnc4)N3C(=O)[C@H](C2)N1C | 1.43 µM | 2.05 µM | 2.3 µM | 2.23 µM | 2.24 µM | 2.05 µM | 1.18 µM | 1.26 µM | 0.39 µM | – | – |
| COC1=C(C)C(=O)C2=C(C1=O)[C@@H]1[C@@H]3CC4=C(C(=O)C(OC)=C(C)C4=O)[C@H](COC(=O)/C=C/c4ccc(OC)c(OC)c4OC)N3C(=O)[C@H](C2)N1C | 9.29 µM | 10.6 µM | 14 µM | 10.6 µM | 16.8 µM | 12.4 µM | 5.1 µM | 9.34 µM | 8.22 µM | – | – |
| COC1=C(C)C(=O)C2=C(C1=O)[C@@H]1[C@@H]3CC4=C(C(=O)C(OC)=C(C)C4=O)[C@H](COC(=O)/C=C/c4cccc5ccccc45)N3C(=O)[C@H](C2)N1C | 7.89 µM | 5 µM | 9.81 µM | 3.94 µM | 9.09 µM | 9.31 µM | 7.42 µM | 11.7 µM | 8.67 µM | – | – |
| C/C=C(/C)C(=O)OC[C@H]1C2=C(C[C@H]3[C@H]4C5=C(C[C@@H](C(=O)N13)N4C)C(=O)C(C)=C(OC)C5=O)C(=O)C(C)=C(OC)C2=O [(-)-RENIERAMYCIN G] | 3.42 µM | 5 µM | 9.07 µM | 3.78 µM | 4.17 µM | 8.81 µM | 2.88 µM | 3.37 µM | 3.3 µM | 1 µg/mL (≈ 1.77 µM) | 0.5 µg/mL (≈ 0.886 µM) |
